Test results taken from patent US9265253B2, “Use of macrocyclic picolinamides as fungicides” (DOW AGROSCIENCES LLC, priority 2013, dated 2016).
Where two headings read alike, the source gives them in different places.

What was measured:
Type in all cases: in vivo
[1] = system: Rhyncosporium secalis; assay: Barley Scald (RHYNSE) disease control; conditions: Hordeum vulgare, 24 h, 1 Day Protectant, read-out: Disease Control RHYNSE 1 DP
Summary of the method: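 Barley seedlings (Harrington) at first-leaf stage sprayed to run-off with compound in acetone/water (1:9) with 110 ppm Triton X-100, then inoculated with Rhyncosporium secalis spores 24 hr later. Kept 48 hr at 20° C, 100% humidity, then greenhouse at 20° C; disease severity (0–100%) scored, control calculated relative to untreated plants.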

[2] = system: Venturia inaequalis; assay: Apple Scab (VENTIN) disease control; conditions: Venturia inaequalis, topical, 24 h, 1 Day Protectant, read-out: Disease Control VENTIN 1 DP
Description: Technical grades of materials were dissolved in acetone, which were then mixed with nine volumes of water containing 110 ppm Triton X-100. The fungicide solutions were applied onto wheat seedlings using an automated booth sprayer to run-off. All sprayed plants were allowed to air dry prior to further handling. All fungicides were evaluated using the aforementioned method for their activity vs. all target diseases. Wheat leaf blotch and brown rust activity were also evaluated using track spray applications, in which case the fungicides were formulated as EC formulations, containing 0.1% Trycol 5941 in the spray solutions. Wheat plants (variety Yuma) were grown from seed in a greenhouse in 50% mineral soil/50% soil-less Metro mix until the first leaf was fully emerged, with 7-10 seedlings per pot. These plants were inoculated with an aqueous spore suspension of Septoria tritici either prior to or after fungicide treatments. After inoculation the plants were kept in 100% relative humidity (one day in a dark dew chamber followed by two to three days in a lighted dew chamber at 20° C.) to permit spores to germinate and infect the leaf. The plants were then transferred to a greenhouse set at 20° C. for disease to develop. When disease symptoms were fully expressed on the 1st leaves of untreated plants, infection levels were assessed on a scale of 0 to 100 percent disease severity. Percent disease control was calculated using the ratio of disease severity on treated plants relative to untreated plants. Apple seedlings (variety McIntosh) were grown in soil-less Metro mix, with one plant per pot. Seedlings with two expanding young leaves at the top (older leaves at bottom of the plants were trimmed) were used in the test. Plants were inoculated with a spore suspension of Venturia inaequalis 24 hr after fungicide treatment and kept in a 22° C. dew chamber with 100% RH for 48 hr, and then moved to a greenhouse set at 20° C. for disease to develop. Fungicide formulation, application and disease assessment on the sprayed leaves followed the procedures as described in the Example A.

[3] = system: Puccinia triticina; Synonym: Puccinia recondite f. Sp. Tritici; assay: Wheat Brown Rust (PUCCRT) disease control; conditions: Puccinia triticina, topical; for pest or weed control at 100 ppm: rate 100 ppm; for pest or weed control at 121.5 g/ha: rate 121.5 g/H
Summary of the method: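 Brown rust on first-leaf Yuma wheat: spore inoculation before or after spray application (acetone/Triton X-100 solution, or EC with Trycol in track spray), overnight 100% RH at 22 °C, disease developed at 24 °C. Severity scored 0–100% and converted to percent control against untreated.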

[4] = system: Mycosphaerella graminicola; Anamorph: Septoria tritici; assay: Leaf Blotch of Wheat (SEPTTR) disease control; conditions: Zymoseptoria tritici; for pest or weed control at 100 ppm: rate 100 ppm; for pest or weed control at 121.5 g/ha: rate 121.5 g/H
Summary of the method: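 Protective or curative format: Septoria tritici inoculation either preceded or followed fungicide application to first-leaf Yuma wheat. Severity scored 0–100%; control expressed versus untreated.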

[5] = 24 h, 1 Day Protectant, read-out: PUCCRT 1 DP disease control
[6] = 72 h, 3 Day Curative, read-out: PUCCRT 3 DC disease control
[7] = 24 h, 1 Day Protectant, read-out: SEPTTR 1 DP disease control
[8] = 72 h, 3 Day Curative, read-out: SEPTTR 3 DC disease control

Compound	pest or weed control at 100 ppm [1] [%]	pest or weed control at 100 ppm [2] [%]	pest or weed control at 100 ppm [3, 5] [%]	pest or weed control at 121.5 g/ha [3, 5] [%]	pest or weed control at 100 ppm [3, 6] [%]	pest or weed control at 121.5 g/ha [3, 6] [%]	pest or weed control at 100 ppm [4, 7] [%]	pest or weed control at 121.5 g/ha [4, 7] [%]	pest or weed control at 100 ppm [4, 8] [%]	pest or weed control at 121.5 g/ha [4, 8] [%]
COc1ccnc(C(=O)N[C@H]2CCC[C@H](CC3CCCC3)[C@@H](OCC3CC3)[C@H](C)OC2=O)c1OCOC(C)=O [Compound F117]	80 to 100	80 to 100	80 to 100	80 to 100	80 to 100	80 to 100	80 to 100	80 to 100	80 to 100	80 to 100
CCCO[C@@H]1[C@@H](CCC(C)C)CCC[C@H](NC(=O)c2nccc(OC)c2OC(C)=O)C(=O)O[C@H]1C [Compound F64]	80 to 100	0 to 80	80 to 100	80 to 100	80 to 100	80 to 100	80 to 100	80 to 100	80 to 100	80 to 100
CCCO[C@@H]1[C@@H](CCC(C)C)CCC[C@H](NC(=O)c2nccc(OC)c2OCOC(C)=O)C(=O)O[C@H]1C [Compound F92]	80 to 100	80 to 100	80 to 100	80 to 100	80 to 100	80 to 100	80 to 100	80 to 100	80 to 100	80 to 100
C=C[C@H]1CCC[C@H](NC(=O)c2nccc(OC)c2OCOC(C)=O)C(=O)O[C@@H](C)[C@@H]1Oc1ccccc1 [Compound F146]	80 to 100	80 to 100		80 to 100		80 to 100		80 to 100		80 to 100
COc1ccnc(C(=O)N[C@H]2CCC[C@H](CC(F)F)[C@@H](Oc3ccccc3)[C@H](C)OC2=O)c1OC(C)=O [Compound F82]	0 to 80	0 to 80	80 to 100	80 to 100	80 to 100	80 to 100	80 to 100	80 to 100	80 to 100	80 to 100
CCCO[C@@H]1[C@@H](Cc2ccc(F)cc2)CCC[C@H](NC(=O)c2nccc(OC)c2OCOC(=O)COCC)C(=O)O[C@H]1C [Compound F167]	80 to 100	80 to 100	80 to 100	80 to 100	80 to 100	80 to 100	80 to 100	80 to 100	80 to 100	80 to 100
CCOCC(=O)OCOc1c(OC)ccnc1C(=O)N[C@H]1CCC[C@H](CCOC)[C@@H](Oc2ccccc2)[C@H](C)OC1=O [Compound F183]	80 to 100	0 to 80	80 to 100	80 to 100	80 to 100	80 to 100	80 to 100	80 to 100	80 to 100	80 to 100
COc1ccnc(C(=O)N[C@H]2CCC[C@H](Cc3ccc(F)cc3)[C@@H](OCC3CC3)[C@H](C)OC2=O)c1OC(C)=O [Compound F67]	80 to 100	0 to 80	80 to 100	80 to 100	80 to 100	80 to 100	80 to 100	80 to 100	80 to 100	80 to 100
COCC[C@H]1CCC[C@H](NC(=O)c2nccc(OC)c2OC(C)=O)C(=O)O[C@@H](C)[C@@H]1Oc1ccccc1 [Compound F78]	80 to 100	0 to 80	80 to 100	80 to 100	80 to 100	80 to 100	80 to 100	80 to 100	80 to 100	80 to 100
COc1ccnc(C(=O)N[C@H]2CCC[C@H](CC(F)F)[C@@H](Oc3ccccc3)[C@H](C)OC2=O)c1OCOC(C)=O [Compound F138]	0 to 80	0 to 80	80 to 100	80 to 100	80 to 100	80 to 100	80 to 100	80 to 100	80 to 100	80 to 100
